For 2 compounds, Activity, IC50 and koff results are on record in ChEMBL document CHEMBL4359843, “Linear and Rationally Designed Stapled Peptides Abrogate TLR4 Pathway and Relieve Inflammatory Symptoms in Rheumatoid Arthritis Rat Model” (J Med Chem, 2019).

The source made the active and inactive calls. No cut-off for these calls is given here. Where a SMILES comes first, the peptide text is derived from it. Bridges are numbered along the chain shown (N, C = ends).

For data set [1], the target named is T1, Toll-like receptor 9 (Mus musculus) (UniProt Q9EQU3).
T1 sequence (whole entry): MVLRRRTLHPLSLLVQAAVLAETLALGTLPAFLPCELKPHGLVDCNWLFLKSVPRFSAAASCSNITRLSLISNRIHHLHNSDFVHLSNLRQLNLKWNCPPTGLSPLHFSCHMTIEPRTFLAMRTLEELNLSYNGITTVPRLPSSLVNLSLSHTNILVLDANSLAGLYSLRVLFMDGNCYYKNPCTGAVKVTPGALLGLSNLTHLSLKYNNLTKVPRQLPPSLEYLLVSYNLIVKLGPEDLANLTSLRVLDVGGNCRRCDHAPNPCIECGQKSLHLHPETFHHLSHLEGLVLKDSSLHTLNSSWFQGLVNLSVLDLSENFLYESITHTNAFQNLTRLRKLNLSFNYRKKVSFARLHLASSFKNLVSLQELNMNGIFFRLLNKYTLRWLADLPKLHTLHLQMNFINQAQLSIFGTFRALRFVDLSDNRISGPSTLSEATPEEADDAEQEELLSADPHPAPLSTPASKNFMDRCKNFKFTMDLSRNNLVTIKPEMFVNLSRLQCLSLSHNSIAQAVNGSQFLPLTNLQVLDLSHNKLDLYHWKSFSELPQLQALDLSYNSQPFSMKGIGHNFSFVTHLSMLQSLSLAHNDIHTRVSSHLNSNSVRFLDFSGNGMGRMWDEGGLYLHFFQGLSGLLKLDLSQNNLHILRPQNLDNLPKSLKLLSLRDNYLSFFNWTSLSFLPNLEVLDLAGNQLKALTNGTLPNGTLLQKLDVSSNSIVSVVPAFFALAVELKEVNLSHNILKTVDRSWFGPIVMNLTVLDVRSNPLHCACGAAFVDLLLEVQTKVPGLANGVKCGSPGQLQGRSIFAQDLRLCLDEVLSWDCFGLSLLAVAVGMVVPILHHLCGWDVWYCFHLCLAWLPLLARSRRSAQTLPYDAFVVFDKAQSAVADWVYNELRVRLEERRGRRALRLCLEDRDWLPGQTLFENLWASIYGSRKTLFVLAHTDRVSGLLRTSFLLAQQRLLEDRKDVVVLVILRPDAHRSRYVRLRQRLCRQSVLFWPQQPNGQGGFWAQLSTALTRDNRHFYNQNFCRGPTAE
Put plainly: Antagonist activity at TLR9 in mouse RAW264.7 cells assessed as reduction in CpG ODN-induced TNFalpha secretion at 20 to 80 uM after 24 hrs by ELISA. It is filed as cell-based. For orientation: An ELISA detects its analyte on a solid surface through an enzyme-linked reagent.

For data set [2], the target named is T2, Toll-like receptor 4 (Mus musculus) (UniProt Q9QUK6).
T2 sequence (whole entry): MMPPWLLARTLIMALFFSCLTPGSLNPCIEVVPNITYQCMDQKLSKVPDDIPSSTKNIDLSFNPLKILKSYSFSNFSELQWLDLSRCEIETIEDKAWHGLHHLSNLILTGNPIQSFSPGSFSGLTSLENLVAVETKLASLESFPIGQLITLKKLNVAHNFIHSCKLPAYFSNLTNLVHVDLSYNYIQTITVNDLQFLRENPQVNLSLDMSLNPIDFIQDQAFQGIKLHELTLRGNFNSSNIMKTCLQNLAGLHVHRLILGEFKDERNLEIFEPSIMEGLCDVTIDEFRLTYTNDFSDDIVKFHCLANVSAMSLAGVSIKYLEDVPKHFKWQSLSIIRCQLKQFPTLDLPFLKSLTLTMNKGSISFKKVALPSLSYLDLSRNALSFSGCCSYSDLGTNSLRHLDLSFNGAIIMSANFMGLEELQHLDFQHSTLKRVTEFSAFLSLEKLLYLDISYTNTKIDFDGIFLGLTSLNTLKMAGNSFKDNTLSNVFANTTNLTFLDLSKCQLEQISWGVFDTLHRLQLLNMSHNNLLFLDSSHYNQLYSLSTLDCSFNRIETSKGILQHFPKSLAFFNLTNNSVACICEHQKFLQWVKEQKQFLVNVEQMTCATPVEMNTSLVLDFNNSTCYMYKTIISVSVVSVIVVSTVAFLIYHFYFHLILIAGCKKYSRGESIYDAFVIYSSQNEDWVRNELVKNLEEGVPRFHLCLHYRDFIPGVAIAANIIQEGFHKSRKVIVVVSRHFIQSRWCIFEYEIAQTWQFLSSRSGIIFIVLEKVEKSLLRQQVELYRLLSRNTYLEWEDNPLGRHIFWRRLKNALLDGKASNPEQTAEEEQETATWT
Put plainly: Antagonist activity at TLR4 in mouse BMDM cells assessed as reduction in LPS-induced IFNbeta secretion at 20 to 80 uM after 24 hrs by ELISA. It is filed as cell-based.

The target in data set [3] is T3, Toll-like receptor 4 (Homo sapiens, UniProt O00206). In words: Antagonist activity at TLR4 in human PBMC cells assessed as reduction in LPS-induced NFkappaB p65 phosphorylation at 80 uM after 15 to 30 mins by Western blot analysis. It counts as cell-based. For orientation: Immunoblotting shows a protein as a band on a membrane.
For data set [4], the target named is T2, Toll-like receptor 4 (Mus musculus). In words: Antagonist activity at TLR4 in mouse RAW264.7 cells assessed as reduction in LPS-induced cytosolic NO level at 80 uM by DAF-FM staining based FACS analysis. It counts as cell-based.
The test system of data set [5] is RAW264.7. In words: Cytotoxicity against mouse RAW264.7 cells assessed as reduction in cell viability at 100 uM after 24 hrs by MTT assay. It is filed as cell-based. The note with it: raw264.7, 24 h. (Tetrazolium assays rely on reduction of a dye to a coloured formazan, in cell work by metabolically active cells.)
In data set [6] the target is T3, Toll-like receptor 4. In words: Binding affinity to recombinant human TLR4 by surface plasmon resonance analysis.
Data set [7] deals with T2, Toll-like receptor 4 (Mus musculus). Put plainly: Antagonist activity at TLR4 in mouse RAW264.7 cells assessed as reduction in LPS-induced TNFalpha secretion after 24 hrs by ELISA. It counts as cell-based.
The target in data set [8] is T3, Toll-like receptor 4. Put plainly: Antagonist activity at TLR4 (unknown origin).
The target of data set [9] is T3, Toll-like receptor 4. Put plainly: Antagonist activity at TLR4 (unknown origin) assessed as inhibition of proinflammatory cytokines.
In data set [10] the target is T3, Toll-like receptor 4. Put plainly: Binding affinity to recombinant human TLR4 using phage displayed compound by Phage-ELISA.
Data set [11] has as its target T2, Toll-like receptor 4 (Mus musculus). Put plainly: Antagonist activity at TLR4 in mouse RAW264.7 cells assessed as reduction in LPS-induced ATF3 activation at 80 uM after 120 to 240 mins by Western blot analysis. It counts as cell-based.
In data set [12] the test system is RAW264.7. Put plainly: Antagonist activity at TLR7/8 in mouse RAW264.7 cells assessed as reduction in R848-induced TNFalpha secretion at 20 to 80 uM after 24 hrs by ELISA. It is filed as cell-based.
Data set [13] addresses T2, Toll-like receptor 4 (Mus musculus). Put plainly: Antagonist activity at TLR4 in mouse RAW264.7 cells assessed as reduction in LPS-induced IL-6 secretion after 24 hrs by ELISA. It counts as cell-based.
Data set [14] concerns the target T3, Toll-like receptor 4. Put plainly: Binding affinity to recombinant human TLR4 assessed as dissociation rate constant up to 200 uM by surface plasmon resonance analysis.
For data set [15], the target named is Toll-like receptor 1/2 (Homo sapiens) (UniProt O60603+Q15399). Put plainly: Antagonist activity at TLR2/1 in human PBMC cells assessed as reduction in PAM3CSK4-induced TNFalpha secretion at 20 to 80 uM after 24 hrs by ELISA. It is filed as cell-based.

T3 sequence (O00206 whole entry): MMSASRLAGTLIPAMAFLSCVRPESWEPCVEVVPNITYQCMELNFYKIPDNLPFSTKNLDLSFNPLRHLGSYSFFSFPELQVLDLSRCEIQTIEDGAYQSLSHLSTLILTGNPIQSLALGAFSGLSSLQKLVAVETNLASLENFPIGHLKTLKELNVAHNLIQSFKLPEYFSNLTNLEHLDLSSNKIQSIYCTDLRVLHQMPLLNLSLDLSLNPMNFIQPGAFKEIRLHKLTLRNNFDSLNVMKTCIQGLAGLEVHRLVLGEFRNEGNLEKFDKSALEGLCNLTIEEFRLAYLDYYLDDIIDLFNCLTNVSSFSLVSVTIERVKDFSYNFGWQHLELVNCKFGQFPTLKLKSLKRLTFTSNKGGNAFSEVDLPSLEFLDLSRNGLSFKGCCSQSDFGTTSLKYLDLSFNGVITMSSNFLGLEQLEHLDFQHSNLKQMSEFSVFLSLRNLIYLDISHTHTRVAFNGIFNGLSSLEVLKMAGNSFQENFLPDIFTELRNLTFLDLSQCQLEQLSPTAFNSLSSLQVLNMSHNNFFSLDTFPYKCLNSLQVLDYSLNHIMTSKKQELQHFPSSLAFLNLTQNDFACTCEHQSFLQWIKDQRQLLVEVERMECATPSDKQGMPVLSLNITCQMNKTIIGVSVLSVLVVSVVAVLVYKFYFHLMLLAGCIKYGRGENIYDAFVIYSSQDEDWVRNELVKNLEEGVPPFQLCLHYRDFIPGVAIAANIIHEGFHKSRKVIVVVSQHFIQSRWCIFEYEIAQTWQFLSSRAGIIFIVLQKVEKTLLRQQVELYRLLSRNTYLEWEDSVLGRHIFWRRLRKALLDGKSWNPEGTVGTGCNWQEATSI

The term IC50 denotes the concentration that gives 50% inhibition. What is called koff is a measure of how fast the partners let go of each other. For H-LGVFSSWWIKLV-OH, the outcome in [1], in data set [12] and in data set [15] was inactive. The outcome in [2], in [3], in data set [4], in data set [10] and in data set [11] was Active. Further, the Activity entry is “Toxic” in data set [5], “Dose-dependent effect” in data set [6], “Dose-dependent effect” in [7] and “Dose-dependent effect” in [13]. Besides, the IC50 in data set [8] was found to be 40 µM; in data set [9], 20 µM. The koff in data set [14] turned out to be 0.0113 s⁻¹.

Take `CC[C@H](C)[C@@H]1NC(=O)[C@H](Cc2c[nH]c3ccccc23)NC(=O)[C@H](Cc2c[nH]c3ccccc23)NC(=O)[C@@H](NC(=O)[C@H](CO)NC(=O)[C@H](Cc2ccccc2)NC(=O)[C@@H](NC(=O)CNC(=O)[C@@H](N)CC(C)C)C(C)C)CC(=O)NCCCC[C@@H](C(=O)N[C@@H](CC(C)C)C(=O)N[C@H](C(=O)O)C(C)C)NC1=O` (H-LGVFSDWWIKLV-OH; lactam 6-10): the Activity result in data set [6], in [7] and in data set [13] was “Dose-dependent effect” in each case. Further, the IC50 stood at 25 µM in data set [8] and 5 µM in data set [9]. In addition, the outcome in data set [10] was Active. For the same compound, in [14], the koff is 0.0014 s⁻¹.
